Columns and labels:
[1] = molecular target: T1, Solute carrier organic anion transporter family member 1B1 (Homo sapiens, UniProt Q9Y6L6); conditions: chinese hamster, cho, 10 µM
T1 sequence (Q9Y6L6 whole entry): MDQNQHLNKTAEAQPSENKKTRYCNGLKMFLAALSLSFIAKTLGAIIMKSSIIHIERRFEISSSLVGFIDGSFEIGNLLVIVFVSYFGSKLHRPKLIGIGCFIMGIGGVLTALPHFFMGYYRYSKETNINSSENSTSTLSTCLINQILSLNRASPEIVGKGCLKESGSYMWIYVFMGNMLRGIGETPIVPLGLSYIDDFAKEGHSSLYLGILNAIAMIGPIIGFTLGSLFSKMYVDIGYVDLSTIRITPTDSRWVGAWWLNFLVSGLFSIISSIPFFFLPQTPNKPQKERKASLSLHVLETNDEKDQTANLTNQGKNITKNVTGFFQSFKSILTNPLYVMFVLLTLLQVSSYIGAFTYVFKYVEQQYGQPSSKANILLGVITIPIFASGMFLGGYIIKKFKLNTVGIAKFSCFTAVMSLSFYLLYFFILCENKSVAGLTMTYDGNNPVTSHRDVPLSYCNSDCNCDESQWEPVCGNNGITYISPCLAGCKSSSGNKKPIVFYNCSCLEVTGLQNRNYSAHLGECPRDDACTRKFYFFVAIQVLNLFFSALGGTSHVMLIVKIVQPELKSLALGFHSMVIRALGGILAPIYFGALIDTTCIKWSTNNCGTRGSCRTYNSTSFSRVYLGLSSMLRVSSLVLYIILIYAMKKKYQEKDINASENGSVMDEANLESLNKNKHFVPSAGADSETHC

[2] = molecular target: T2, Solute carrier organic anion transporter family member 1B3 (Homo sapiens, UniProt Q9NPD5); conditions: chinese hamster, cho, 10 µM
T2 sequence (Q9NPD5 whole entry): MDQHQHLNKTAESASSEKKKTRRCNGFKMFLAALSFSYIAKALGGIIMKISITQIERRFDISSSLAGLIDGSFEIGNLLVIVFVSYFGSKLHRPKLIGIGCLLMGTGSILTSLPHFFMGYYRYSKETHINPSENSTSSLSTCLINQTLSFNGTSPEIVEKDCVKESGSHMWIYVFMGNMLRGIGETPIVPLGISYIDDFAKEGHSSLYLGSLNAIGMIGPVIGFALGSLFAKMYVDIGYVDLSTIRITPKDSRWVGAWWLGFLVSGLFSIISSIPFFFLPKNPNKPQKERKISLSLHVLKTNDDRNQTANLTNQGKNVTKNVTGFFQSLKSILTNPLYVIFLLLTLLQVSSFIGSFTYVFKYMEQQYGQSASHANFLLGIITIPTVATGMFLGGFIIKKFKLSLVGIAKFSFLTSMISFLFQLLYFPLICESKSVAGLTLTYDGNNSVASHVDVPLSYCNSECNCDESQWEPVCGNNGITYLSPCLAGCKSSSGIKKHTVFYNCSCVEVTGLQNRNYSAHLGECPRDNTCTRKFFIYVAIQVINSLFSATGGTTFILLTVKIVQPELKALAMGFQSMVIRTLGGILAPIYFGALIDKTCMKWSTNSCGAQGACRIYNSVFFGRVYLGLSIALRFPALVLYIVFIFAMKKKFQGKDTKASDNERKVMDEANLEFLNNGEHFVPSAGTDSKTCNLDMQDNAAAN

**Q.** How did the residual activity [1] turn out when `O=C(O)c1c2ccccc2cc2ccccc12` [ANTHRACENE-9-CARBOXYLIC ACID] was run?
**A.** 95.94%

**Q.** What about the residual activity [2] of the same molecule?
**A.** 87.88%

**Q.** How did the residual activity [1] turn out when `O=C1c2c(O)cccc2Cc2cccc(O)c21` [ANTHRALIN] was run?
**A.** 86.38%

**Q.** What about the residual activity [2] of the same molecule?
**A.** 90.63%

**Q.** With `O=C1c2ccccc2C(=O)c2ccccc21` [ANTHRAQUINONE] as the molecule, how does the residual activity [1] read?
**A.** 96.98%

**Q.** And the residual activity [2]?
**A.** 78.8%

**Q.** What does the source list for `COc1cc(O)cc(OC)c1OC` [ANTIAROL]?
**A.** residual activity [1]: 95.16%; residual activity [2]: 113%

**Q.** Which residual activity [1] does the source give for `Cc1cc(=O)n(-c2ccccc2)n1C` [ANTIPYRINE] here?
**A.** 79.71%

**Q.** And the residual activity [2]?
**A.** 82.49%

**Q.** For `O=C(O)C1CC([C@@H]2CCCCN2)CN2CCCCC12` (some centres not stated) [APHYLLIC ACID], which residual activity [1] is on record?
**A.** 83.2%

**Q.** What about the residual activity [2] of the same molecule?
**A.** 100.7%

**Q.** `CC(=O)Oc1ccc(-c2cc(=O)c3c(OC(C)=O)cc(OC(C)=O)cc3o2)cc1` [APIGENIN TRIACETATE] was tested. Which residual activity [1] did it give?
**A.** 92.99%

**Q.** What about the residual activity [2] of the same molecule?
**A.** 94.69%

**Q.** How did the residual activity [1] turn out when `O=c1cc(-c2ccc(O)cc2)oc2cc(O)cc(O)c12` [APIGENIN] was run?
**A.** 84.2%

**Q.** What about the residual activity [2] of the same molecule?
**A.** 134.2%

**Q.** `O=c1cc(-c2ccc(O)cc2)oc2cc(O[C@@H]3O[C@H](CO)[C@@H](O)[C@H](O)[C@H]3O)cc(O)c12` [APIGETRIN] was tested. Which residual activity [1] did it give?
**A.** 204.4%

**Q.** And the residual activity [2]?
**A.** 134.6%

**Q.** With `O=c1cc(-c2ccc(O)cc2)oc2cc(O[C@@H]3O[C@H](CO)[C@@H](O)[C@H](O)[C@H]3O[C@@H]3OC[C@](O)(CO)[C@H]3O)cc(O)c12` [APIIN] as the molecule, how does the residual activity [1] read?
**A.** 69.17%

**Q.** What about the residual activity [2] of the same molecule?
**A.** 141.5%

**Q.** How did the residual activity [1] turn out when `C=CCc1cc(OC)c2c(c1OC)OCO2` [APIOL] was run?
**A.** 213.1%

**Q.** And the residual activity [2]?
**A.** 107.2%

**Q.** With `OC[C@H]1O[C@@H](Oc2ccc(O)cc2)[C@H](O)[C@@H](O)[C@@H]1O` [ARBUTIN] as the molecule, how does the residual activity [1] read?
**A.** 103.7%

**Q.** And the residual activity [2]?
**A.** 113.4%

**Q.** Which residual activity [1] does the source give for `N=C(N)NCCCCNC(=N)N.O=S(=O)(O)O` [ARCAINE SULFATE] here?
**A.** 78.37%

**Q.** And the residual activity [2]?
**A.** 96.72%

**Q.** Which residual activity [1] does the source give for `Br.COC(=O)C1=CCCN(C)C1` [ARECOLINE HYDROBROMIDE] here?
**A.** 112.6%

**Q.** What about the residual activity [2] of the same molecule?
**A.** 103.7%

**Q.** How did the residual activity [1] turn out when `COc1cccc2c1cc([N+](=O)[O-])c1c(C(=O)O)cc3c(c12)OCO3` [ARISTOLOCHIC ACID] was run?
**A.** 76.91%

**Q.** What about the residual activity [2] of the same molecule?
**A.** 107.6%

**Q.** With `CCCCCC(=O)Cc1cc(O)cc(O)c1C(=O)Oc1cc(CC(=O)CCCCC)c(C(=O)O)c(OC)c1` [ARTHONIOIC ACID] as the molecule, how does the residual activity [1] read?
**A.** 52.3%

**Q.** What about the residual activity [2] of the same molecule?
**A.** 96.29%

**Q.** Which residual activity [1] does the source give for `c1ccc2c(Cc3c[nH]c4ccccc34)c[nH]c2c1` [ARUNDINE] here?
**A.** 101.6%

**Q.** And the residual activity [2]?
**A.** 110.1%

**Q.** Which residual activity [1] does the source give for `c1cc2c(cc1[C@H]1OC[C@H]3[C@@H]1CO[C@H]3c1ccc3c(c1)OCO3)OCO2` [ASARININ] here?
**A.** 107.7%

**Q.** What about the residual activity [2] of the same molecule?
**A.** 116.8%

**Q.** What does the source list for `O=C1O[C@H]([C@@H](O)CO)C(O)=C1O` [ASCORBIC ACID]?
**A.** residual activity [1]: 84.23%; residual activity [2]: 96.05%

**Q.** For `CC1=C(/C=C/C(C)=C/C=C/C(C)=C/C=C/C=C(C)/C=C/C=C(C)/C=C/C2=C(C)C(=O)[C@@H](O)CC2(C)C)C(C)(C)C[C@H](O)C1=O` [ASTAXANTHIN], which residual activity [1] is on record?
**A.** 95.25%

**Q.** What about the residual activity [2] of the same molecule?
**A.** 87.19%

**Q.** Which residual activity [1] does the source give for `COc1ccc(CCN2CCC(Nc3nc4ccccc4n3Cc3ccc(F)cc3)CC2)cc1` [ASTEMIZOLE] here?
**A.** 127.5%

**Q.** And the residual activity [2]?
**A.** 97.68%

**Q.** Which residual activity [1] does the source give for `CC(C)NCC(O)COc1ccc(CC(N)=O)cc1` (configuration not stated) [ATENOLOL] here?
**A.** 78.26%

**Q.** And the residual activity [2]?
**A.** 93.81%

**Q.** For `O=C1c2ccccc2C(=O)c2c1ccc(O)c2O` [ATHRAQUINONES A], which residual activity [1] is on record?
**A.** 84.81%

**Q.** And the residual activity [2]?
**A.** 93.11%

**Q.** Which residual activity [1] does the source give for `O=C1C(O)=C([C@H]2CC[C@H](c3ccc(Cl)cc3)CC2)C(=O)c2ccccc21` [ATOVAQUONE] here?
**A.** 89.04%

**Q.** And the residual activity [2]?
**A.** 81.94%

**Q.** What does the source list for `COC(=O)c1c(C)cc(OC(=O)c2c(C)cc(O)c(C=O)c2O)c(C)c1O` [ATRANORIN]?
**A.** residual activity [1]: 122.9%; residual activity [2]: 109.7%

**Q.** Which residual activity [1] does the source give for `CCNc1nc(Cl)nc(NC(C)C)n1` [ATRAZINE] here?
**A.** 133.8%

**Q.** What about the residual activity [2] of the same molecule?
**A.** 96.21%

Source: ChEMBL document CHEMBL3039007, “Structure-based identification of OATP1B1/3 inhibitors” (Mol Pharmacol, 2013)
